Data: paper PMC11850406, “Large-scale screening of HIV-1 T-cell epitopes restricted by 12 prevalent HLA-A allotypes in Northeast Asia and universal detection of HIV-1-specific CD8^+ T cells” (Frontiers in Microbiology, 2025)
Where two headings read alike, the source gives them in different places. Where no end group is shown, it is not given here.

Assays:
HLA-A3101 = biological target: T1, HLA-A3101 (Homo sapiens, UniProt P04439, A270S/D185E/E176V/E277Q/F33T/G231S/G80R/H175R/I121M/I218V/I322F/K168Q/L300P/L318F/M331R/P217A/Q94H/R138Q/T323A/T345S/T97I/V358M); experiment: Peptide competitive binding assay, HMy2.CIR cells expressing A3101; conditions: for inhibition at 5 µM / 5-μM inhibition (%): peptide 5 μM vs FITC-labeled reference peptide 300 nM; for inhibition at 5 µM / inhibition at 15 µM / 5-μM inhibition (%) / 15-μM inhibition (%): 24 h, 4°C, flow cytometry; for inhibition at 15 µM / 15-μM inhibition (%): peptide 15 μM vs FITC-labeled reference peptide 300 nM; for IC50: read-out: Affinity
T1 construct: expressed in transfected cells; host or cells: HMy2.CIR

HLA-A3303 = HLA-A3303 (Homo sapiens, UniProt P04439, A270S/D185E/E176V/E277Q/E87N/F33T/G231S/H175R/I121M/I218V/I322F/K168Q/L300P/L318F/M331R/P217A/Q86R/Q94H/R138Q/T323A/T345S/T97I/V358M); experiment: Peptide competitive binding assay, HMy2.CIR cells expressing A3303; conditions: for inhibition at 5 µM: peptide 5 μM vs FITC-labeled reference peptide 300 nM; for inhibition at 5 µM / inhibition at 15 µM: 24 h, 4°C, flow cytometry; for inhibition at 15 µM: peptide 15 μM vs FITC-labeled reference peptide 300 nM; for IC50: read-out: Affinity
HLA-A1102 = HLA-A1102 (Homo sapiens, UniProt P04439, A114D/D185E/E176A/E43K/F33Y/L180Q/S129P/T187R); experiment: cell-based; format: binding; conditions: 24 h; for inhibition at 5 µM: read-out: 5-μM inhibition (%); for inhibition at 15 µM: read-out: 15-μM inhibition (%)
HLA-A1101 = biological target: T2, HLA-A1101 (Homo sapiens, UniProt P04439, A114D/D185E/E176A/F33Y/L180Q/S129P/T187R); experiment: cell-based; format: binding; conditions: for inhibition at 5 µM / inhibition at 15 µM: 24 h; for inhibition at 5 µM: read-out: 5-μM inhibition (%); for inhibition at 15 µM: read-out: 15-μM inhibition (%)
T2 construct: expressed in transfected cells; host or cells: HMy2.CIR

HLA-A0207 = biological target: T3, HLA-A0207 (Homo sapiens, UniProt P04439, D140Y/D185E/D98H/E176V/E277Q/G131W/G231S/I119V/I121R/I166T/I218V/L300P/L318F/N151K/N90K/P208A/P217A/Q86G/Q94H/R138H/R169H/T345S/Y123C); experiment: Peptide competitive binding assay, HMy2.CIR cells expressing A0207; conditions: 24 h, 4°C, flow cytometry; for 5-μM inhibition (%) / inhibition at 5 µM: peptide 5 μM vs FITC-labeled reference peptide 300 nM; for 15-μM inhibition (%) / inhibition at 15 µM: peptide 15 μM vs FITC-labeled reference peptide 300 nM
T3 construct: expressed in transfected cells; host or cells: HMy2.CIR

HLA-A0201 = biological target: T4, HLA-A0201 (Homo sapiens, UniProt P04439, D140Y/D185E/D98H/E176V/E277Q/G131W/G231S/I119V/I121R/I166T/I218V/L300P/L318F/N151K/N90K/P208A/P217A/Q86G/Q94H/R138H/R169H/T345S); experiment: cell-based; format: binding; conditions: for inhibition at 5 µM / inhibition at 15 µM: A0201, 24 h, 4°C, flow cytometry; for inhibition at 5 µM: peptide 5 μM vs FITC-labeled reference peptide 300 nM, read-out: 5-μM inhibition (%); for inhibition at 15 µM: peptide 15 μM vs FITC-labeled reference peptide 300 nM, read-out: 15-μM inhibition (%)
T4 construct: expressed in transfected cells; host or cells: HMy2.CIR

HLA-A0206 = biological target: T5, HLA-A0206 (Homo sapiens, UniProt P04439, D140Y/D185E/D98H/E176V/E277Q/F33Y/G131W/G231S/I119V/I121R/I166T/I218V/L300P/L318F/N151K/N90K/P208A/P217A/Q86G/Q94H/R138H/R169H/T345S); experiment: Peptide competitive binding assay, HMy2.CIR cells expressing A0206; conditions: 24 h, 4°C, flow cytometry; for 5-μM inhibition (%): peptide 5 μM vs FITC-labeled reference peptide 300 nM
T5 construct: expressed in transfected cells; host or cells: HMy2.CIR

HLA-A3001 = biological target: T6, HLA-A3001 (Homo sapiens, UniProt P04439, D140H/D185E/E176W/F33S/G80R/H175R/K168Q/R138E/R41S); experiment: cell-based; format: binding
T6 construct: expressed in transfected cells; host or cells: HMy2.CIR

[1] = A1102, peptide 5 μM vs FITC-labeled reference peptide 300 nM, 4°C, flow cytometry
[2] = A1102, peptide 15 μM vs FITC-labeled reference peptide 300 nM, 4°C, flow cytometry
[3] = A1101, peptide 5 μM vs FITC-labeled reference peptide 300 nM, 4°C, flow cytometry
[4] = A1101, peptide 15 μM vs FITC-labeled reference peptide 300 nM, 4°C, flow cytometry

CC[C@H](C)[C@H](NC(=O)[C@H](Cc1ccccc1)NC(=O)[C@@H](NC(=O)[C@H](C)N)C(C)C)C(=O)N[C@@H](Cc1c[nH]cn1)C(=O)N[C@@H](CC(N)=O)C(=O)N[C@@H](Cc1ccccc1)C(=O)N[C@@H](CCCCN)C(=O)N[C@@H](CCCNC(=N)N)C(=O)O [Peptide P41]
inhibition at 5 µM (HLA-A3101; A3101): 63.4% | inhibition at 15 µM (HLA-A3101; A3101): 96% | IC50 (HLA-A3101): < 5 µM | inhibition at 5 µM (HLA-A3303; A3303): 71% | inhibition at 15 µM (HLA-A3303; A3303): 89.8% | IC50 (HLA-A3303): < 5 µM | inhibition at 5 µM (HLA-A1102): 1.73% | inhibition at 15 µM (HLA-A1102): 21.5% | IC50 (HLA-A1101): < 5 µM | inhibition at 5 µM (HLA-A1101): 83.8% | inhibition at 15 µM (HLA-A1101): 86.8%

LVDTIAIAV [Peptide P77]
5-μM inhibition (%) (HLA-A0207): 9.36% | 15-μM inhibition (%) (HLA-A0207): 23.40%

YQYMDDLYV [Peptide P15]
inhibition at 5 µM (HLA-A0207): 20.1% | inhibition at 15 µM (HLA-A0207): 27.6% | IC50 (HLA-A0201): < 5 µM | inhibition at 5 µM (HLA-A0201): 56.5% | inhibition at 15 µM (HLA-A0201): 83%

YMEAEVIPA [Peptide P82]
5-μM inhibition (%) (HLA-A0207): 13.67% | 15-μM inhibition (%) (HLA-A0207): 30.79%

KVILVAVHV [Peptide P74]
5-μM inhibition (%) (HLA-A0206): 20.64%

QLPEKDSWTV [Peptide P14]
inhibition at 5 µM (HLA-A0207): 0% | inhibition at 15 µM (HLA-A0207): 8.35% | IC50 (HLA-A0201): 5 to 15 µM | inhibition at 5 µM (HLA-A0201): 27.6% | inhibition at 15 µM (HLA-A0201): 81.5%

QIINMWQEV [Peptide P73]
5-μM inhibition (%) (HLA-A0206): 25.71% | 15-μM inhibition (%) (HLA-A0206; peptide 15 μM vs FITC-labeled reference peptide 300 nM): 27.84%

AAGTGSSSK [Peptide P86]
5-μM inhibition (%) (HLA-A1102; [1]): 1.04% | 15-μM inhibition (%) (HLA-A1102; [2]): 3.12%

FVNTPPLVK [Peptide P44]
inhibition at 5 µM (HLA-A1102; [1]): 6.01% | inhibition at 15 µM (HLA-A1102; [2]): 26.1% | IC50 (HLA-A1101): < 5 µM | inhibition at 5 µM (HLA-A1101; [3]): 84.5% | inhibition at 15 µM (HLA-A1101; [4]): 92.7%

RIKCFNCGR [Peptide P96]
5-μM inhibition (%) (HLA-A3101; A3101): 0.00% | 15-μM inhibition (%) (HLA-A3101; A3101): 0.00%

TSLPKQEQK [Peptide P31]
inhibition at 5 µM (HLA-A1102; [1]): 4.16% | inhibition at 15 µM (HLA-A1102; [2]): 18% | IC50 (HLA-A1101): < 5 µM | inhibition at 5 µM (HLA-A1101; [3]): 75.2% | inhibition at 15 µM (HLA-A1101; [4]): 86.5%

MAHQPLSPR [Peptide P111]
IC50 (HLA-A3303; A3303, class from inhibition at 5 and 15 μM of FITC-labeled reference peptide binding): < 5 µM | inhibition at 5 µM (HLA-A3303; A3303): 78.2% | inhibition at 15 µM (HLA-A3303; A3303): 89.2% | inhibition at 5 µM (HLA-A1102; [1]): 4.16% | inhibition at 15 µM (HLA-A1102; [2]): 20.6%

MVHQPISPR [Peptide P103]
inhibition at 5 µM (HLA-A3101; A3101): 65.4% | inhibition at 15 µM (HLA-A3101; A3101): 79.2% | IC50 (HLA-A3101): < 5 µM | inhibition at 5 µM (HLA-A3303; A3303): 70.2% | inhibition at 15 µM (HLA-A3303; A3303): 99.5% | IC50 (HLA-A3303): < 5 µM | inhibition at 5 µM (HLA-A1102; [1]): 3.81% | inhibition at 15 µM (HLA-A1102; [2]): 13.4%

ASRELERFA [Peptide P90]
IC50 (HLA-A3001): 5 to 15 µM | inhibition at 5 µM (HLA-A3001; A3001, peptide 5 μM vs FITC-labeled reference peptide 300 nM, 24 h, 4°C, flow cytometry, read-out: 5-μM inhibition (%)): 17.7% | inhibition at 15 µM (HLA-A3001; A3001, peptide 15 μM vs FITC-labeled reference peptide 300 nM, 24 h, 4°C, flow cytometry, read-out: 15-μM inhibition (%)): 58%

RAKRRVVER [Peptide P98]
IC50 (HLA-A3101; A3101, class from inhibition at 5 and 15 μM of FITC-labeled reference peptide binding): 5 to 15 µM | inhibition at 5 µM (HLA-A3101; A3101): 47.9% | inhibition at 15 µM (HLA-A3101; A3101): 82%

NLKTGKYAR [Peptide P101]
5-μM inhibition (%) (HLA-A3101; A3101): 32.90% | 15-μM inhibition (%) (HLA-A3101; A3101): 41.10%

YVDRFFKTL [Peptide P76]
5-μM inhibition (%) (HLA-A0207): 11.90% | 15-μM inhibition (%) (HLA-A0207): 30.60%

KVVPRRKAK [Peptide P93]
5-μM inhibition (%) (HLA-A3001; A3001, peptide 5 μM vs FITC-labeled reference peptide 300 nM, 24 h, 4°C, flow cytometry): 16.92% | 15-μM inhibition (%) (HLA-A3001; A3001, peptide 15 μM vs FITC-labeled reference peptide 300 nM, 24 h, 4°C, flow cytometry): 41.10%

MTKILEPFR [Peptide P102]
inhibition at 5 µM (HLA-A3101; A3101): 60.2% | inhibition at 15 µM (HLA-A3101; A3101): 88.3% | IC50 (HLA-A3101): < 5 µM | inhibition at 5 µM (HLA-A3303; A3303): 69.5% | inhibition at 15 µM (HLA-A3303; A3303): 70% | IC50 (HLA-A3303): < 5 µM
